Test results: EP1208096B1, “SUBSTITUTED PYRIDAZINES AND FUSED PYRIDAZINES WITH ANGIOGENESIS INHIBITING ACTIVITY” (Bayer Corporation, priority 1999, dated 2001)

Key:
[1] = system: SK-MEL2 human tumor cells that were transfected with a plasmid containing the murine VEGF gene; experiment: Matrigel Angiogenesis Model (hemoglobin content of Matrigel plugs); assay type: in vivo, Mice; conditions: 30, 100 and 300 mg/kg po sid; 12 days post-implantation; vs. vehicle control animals
Description: Preparation of Matrigel Plugs and in vivo Phase: Matrigel® (Collaborative Biomedical Products, Bedford, MA) is a basement membrane extract from a murine tumor composed primarily of laminin, collagen IV and heparan sulfate proteoglycan. It is provided as a sterile liquid at 4° C, but rapidly forms a solid gel at 37° C.
Liquid Matrigel at 4° C was mixed with SK-MEL2 human tumor cells that were transfected with a plasmid containing the murine VEGF gene with a selectable marker. Tumor cells were grown in vitro under selection and cells were mixed with cold liquid Matrigel at a ratio of 2 X 10^6 per 0.5 ml. […]
Optical densities were determined spectrophotometrically at 600 nm in a 96-well plate reader, SpectraMax 250 Microplate Spectrophotometer System (Molecular Devices, Sunnyvale, CA). Background Lysis Buffer readings were subtracted from all wells.
Total sample hemoglobin content was calculated according to the following equation: Total Hemoglobin = (Sample Lysate Volume) x (Hemoglobin Concentration) [formula]
The average Total Hemoglobin of Matrigel samples without cells was subtracted from each Total Hemoglobin Matrigel sample with cells. Percent inhibition was calculated according to the following equation: % Inhibition =((Average Total Hemoglobin Drug-Treated Tumor Lysates) X 100)/((Average Total Hemoglobin Non-Treated Tumor Lysates)) [formula]

[2] = molecular target: T1, cytosolic kinase domain of KDR kinase (Homo sapiens, UniProt P35968); experiment: KDR Assay (ELISA, phosphorylation of poly(Glu4;Tyr1)); assay type: biochemical; conditions: 3.3 µM ATP, 60 minutes at room temperature, 30 ng KDR kinase domain
T1 construct: The cytosolic kinase domain of KDR kinase was expressed as a 6His fusion protein in Sf9 insect cells; 6His; made in house; host or cells: Sf9 insect cells
T1 sequence (P35968 834-1162 limits assumed): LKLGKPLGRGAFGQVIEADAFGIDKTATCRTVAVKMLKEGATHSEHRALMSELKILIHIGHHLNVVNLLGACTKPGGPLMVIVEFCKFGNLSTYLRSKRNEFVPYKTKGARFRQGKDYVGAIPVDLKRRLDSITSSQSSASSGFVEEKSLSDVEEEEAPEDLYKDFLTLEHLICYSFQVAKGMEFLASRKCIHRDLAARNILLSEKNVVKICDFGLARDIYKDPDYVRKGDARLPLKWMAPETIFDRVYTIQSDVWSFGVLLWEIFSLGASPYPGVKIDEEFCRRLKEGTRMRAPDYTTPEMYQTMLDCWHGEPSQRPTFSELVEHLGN
Description: The cytosolic kinase domain of KDR kinase was expressed as a 6His fusion protein in Sf9 insect cells. The KDR kinase domain fusion protein was purified over a Ni^++ chelating column. Ninety-six well ELISA plates were coated with 5 µg poly(Glu4;Tyr1) (Sigma Chemical Co., St Louis, MO) in 100 µl HEPES buffer (20 mM HEPES, pH 7.5, 150 mM NaCl, 0.02% Thimerosal) at 4° overnight. Before use, the plate was washed with HEPES, NaCl buffer and the plates were blocked with 1% BSA, 0.1% Tween 20 in HEPES, NaCl buffer.
Test compounds were serially diluted in 100% DMSO from 4 mM to 0.12 µM in half-log dilutions. These dilutions were further diluted twenty fold in H2O to obtain compound solutions in 5% DMSO. Following loading of the assay plate with 85 µl of assay buffer (20 mM HEPES, pH 7.5, 100 mM KCl, 10 mM MgCl2, 3 mM MnCl2, 0.05% glycerol, 0.005% Triton X-100, 1 mM -mercaptoethanol, with or without 3.3 µM ATP), 5 µl of the diluted compounds were added to a final assay volume of 100 µl. Final concentrations were between 10 µM, and 0.3 nM in 0.25% DMSO. The assay was initiated by the addition of 10µl (30 ng) of KDR kinase domain.
The assay was incubated with test compound or vehicle alone with gentle agitation at room temperature for 60 minutes. The wells were washed and phosphotyrosines (PY) were probed with an anti-phosphotyrosine (PY), mAb clone 4G10 (Upstate Biotechnology, Lake Placid, NY). PY/anti-PY complexes were detected with an anti-mouse IgG/HRP conjugate (Amersham International plc, Buckinghamshire, England). Phosphotyrosine was quantitated by incubating with 100 µl 3, 3', 5, 5' tetramethylbenzidine solution (Kirkegaard and Perry, TMB Microwell 1 Component peroxidase substrate). Color development was arrested by the addition of 100 µl 1% HCl-based stop solution (Kirkegaard and Perry, TMB I Component Stop Solution).
Optical densities were determined spectrophotometrically at 450 nm in a 96-well plate reader, SpectraMax 250 (Molecular Devices). Background (no ATP in assay) OD values were subtracted from all ODs and the percent inhibition was calculated according to the equation: % Inhibition =((OD(vehicle control) - OD(with compound)) X 100)/(OD(vehicle control) - OD(no ATP added)) [formula]
The IC50 values were determined with a least squares analysis program using compound concentration versus percent inhibition. Compounds that have IC50 < 100 nM in this assay include those of Examples 1, 2, 4, 5, 6, 7, 10, 11, 12, 13, 14, 15, 16 and 23. Compounds that have IC50 values between 100 nM and 1,000 nM include those of examples 8, 9 and 22. Those that have measured IC50 values > 1,000 nM include those of examples 3, 17, 18 and 21.

- IC50 [2]: < 100 nM
Compound: CNC(=O)c1cc(Cc2nnc(Nc3ccc(Cl)cc3)c3ccccc23)ccn1 [Example 1, 4-[4-(4-Chlorophenylamino)phthalazin-1-ylmethyl]pyridin-2-yl carboxylic acid methylamide]
- inhibition of total hemoglobin content of the Matrigel samples [1]: > 50%
